Reference: the NIST ThermoML archive (doi:10.1021/je800110r)
Several values for one entry are separate records, joined by “and”; a condition that tells them apart may be missing. Identical values can stand only once.

Settings: 283.14 K, Liquid, Vibrating tube method

CCCCCCCCCC [decane]
Settings | mass density
322 kPa | 737.5 kg/m3
338 kPa | 737.7 kg/m3
385 kPa | 737.6 kg/m3
479 kPa | 737.8 kg/m3
514 kPa | 737.8 kg/m3
551 kPa | 737.8 kg/m3
574 kPa | 737.8 kg/m3
589 kPa | 737.8 kg/m3
615 kPa | 737.9 kg/m3
633 kPa | 737.9 kg/m3
651 kPa | 737.9 kg/m3
665 kPa | 737.9 kg/m3
683 kPa | 737.8 kg/m3
700 kPa | 737.8 kg/m3
721 kPa | 737.8 kg/m3
740 kPa | 737.9 kg/m3
763 kPa | 738 kg/m3
783 kPa | 737.9 kg/m3
808 kPa | 738 kg/m3
833 kPa | 738 kg/m3
857 kPa | 738 kg/m3
877 kPa | 738 kg/m3
899 kPa | 738 kg/m3
931 kPa | 738.1 kg/m3
966 kPa | 738.2 kg/m3
995 kPa | 738.1 kg/m3
1025 kPa | 738.1 kg/m3
1066 kPa | 738.2 kg/m3
1103 kPa | 738.2 kg/m3
1133 kPa | 738.1 kg/m3
1173 kPa | 738.3 kg/m3
1217 kPa | 738.3 kg/m3
1247 kPa | 738.2 kg/m3
1299 kPa | 738.3 kg/m3
1359 kPa | 738.3 kg/m3
1404 kPa | 738.5 kg/m3
1536 kPa | 738.5 kg/m3
2661 kPa | 739.4 kg/m3
2677 kPa | 739.3 kg/m3
2694 kPa | 739.3 kg/m3
2848 kPa | 739.5 kg/m3
2888 kPa | 739.4 kg/m3
2910 kPa | 739.5 kg/m3
2926 kPa | 739.5 kg/m3
2942 kPa | 739.5 kg/m3
2959 kPa | 739.6 kg/m3
2987 kPa | 739.6 kg/m3
3024 kPa | 739.7 kg/m3
3042 kPa | 739.6 kg/m3
3053 kPa | 739.6 kg/m3
3064 kPa | 739.7 kg/m3
3084 kPa | 739.6 kg/m3
3192 kPa | 739.6 kg/m3
3239 kPa | 739.7 kg/m3
3249 kPa | 739.8 kg/m3
3261 kPa | 739.8 kg/m3
3321 kPa | 739.8 kg/m3
3332 kPa | 739.8 kg/m3
3814 kPa | 740.2 kg/m3
3824 kPa | 740.1 kg/m3
3837 kPa | 740.2 kg/m3
3847 kPa | 740.3 kg/m3
3862 kPa | 740.2 kg/m3
3876 kPa | 740.1 kg/m3
3887 kPa | 740.3 kg/m3
4382 kPa | 740.6 kg/m3
4686 kPa | 740.8 kg/m3
4709 kPa | 740.9 kg/m3
4730 kPa | 740.8 kg/m3
4749 kPa | 740.9 kg/m3
4854 kPa | 741 kg/m3
4879 kPa | 741 kg/m3
4901 kPa | 741 kg/m3
4924 kPa | 740.9 kg/m3
4947 kPa | 741 kg/m3
4968 kPa | 741.1 kg/m3
4992 kPa | 741.1 kg/m3
5006 kPa | 741.1 kg/m3
5028 kPa | 741 kg/m3
5042 kPa | 741 kg/m3
5058 kPa | 741.1 kg/m3
5077 kPa | 741.1 kg/m3
5094 kPa | 741.2 kg/m3
5117 kPa | 741.1 kg/m3
5136 kPa | 741 kg/m3
5156 kPa | 741.1 kg/m3
5176 kPa | 741.3 kg/m3
5205 kPa | 741.3 kg/m3
5223 kPa | 741.2 kg/m3
5244 kPa | 741.2 kg/m3
5265 kPa | 741.2 kg/m3
5316 kPa | 741.3 kg/m3
5598 kPa | 741.5 kg/m3
5751 kPa | 741.6 kg/m3
5767 kPa | 741.6 kg/m3
5776 kPa | 741.6 kg/m3
5781 kPa | 741.6 kg/m3
5783 kPa | 741.6 kg/m3
5784 kPa | 741.5 kg/m3 and 741.7 kg/m3
5793 kPa | 741.7 kg/m3
5798 kPa | 741.6 kg/m3
5802 kPa | 741.6 kg/m3
5814 kPa | 741.7 kg/m3
5816 kPa | 741.6 kg/m3
5823 kPa | 741.7 kg/m3
5833 kPa | 741.6 kg/m3
5852 kPa | 741.7 kg/m3
5869 kPa | 741.7 kg/m3
5881 kPa | 741.7 kg/m3
5888 kPa | 741.6 kg/m3
5891 kPa | 741.7 kg/m3
5895 kPa | 741.8 kg/m3
5898 kPa | 741.7 kg/m3
5902 kPa | 741.8 kg/m3
5907 kPa | 741.7 kg/m3
5910 kPa | 741.7 kg/m3
5914 kPa | 741.7 kg/m3
5929 kPa | 741.7 kg/m3
6176 kPa | 741.9 kg/m3
6202 kPa | 741.9 kg/m3
6218 kPa | 741.8 kg/m3
6237 kPa | 741.9 kg/m3
6251 kPa | 741.8 kg/m3
6269 kPa | 741.9 kg/m3
6284 kPa | 742 kg/m3
6304 kPa | 741.9 kg/m3
6319 kPa | 742 kg/m3
6335 kPa | 742 kg/m3
6350 kPa | 741.9 kg/m3
6373 kPa | 742.1 kg/m3
6391 kPa | 742.1 kg/m3
6409 kPa | 742 kg/m3
6431 kPa | 742 kg/m3
6452 kPa | 742 kg/m3
6465 kPa | 742.1 kg/m3
6481 kPa | 742 kg/m3
6497 kPa | 742.2 kg/m3
6519 kPa | 742.2 kg/m3
6543 kPa | 742.1 kg/m3
6560 kPa | 742.2 kg/m3
6588 kPa | 742.2 kg/m3
6610 kPa | 742.2 kg/m3
7156 kPa | 742.7 kg/m3
7171 kPa | 742.6 kg/m3
7221 kPa | 742.7 kg/m3
7240 kPa | 742.6 kg/m3
7671 kPa | 742.8 kg/m3
7684 kPa | 742.9 kg/m3
7747 kPa | 743 kg/m3
7758 kPa | 743 kg/m3
7770 kPa | 743 kg/m3
8186 kPa | 743.2 kg/m3
8201 kPa | 743.4 kg/m3
8217 kPa | 743.3 kg/m3
8232 kPa | 743.3 kg/m3
8252 kPa | 743.3 kg/m3
8265 kPa | 743.3 kg/m3
8279 kPa | 743.3 kg/m3
8296 kPa | 743.4 kg/m3
8848 kPa | 743.8 kg/m3
8878 kPa | 743.7 kg/m3
8907 kPa | 743.7 kg/m3
8922 kPa | 743.8 kg/m3
8936 kPa | 743.9 kg/m3
8949 kPa | 743.7 kg/m3
8964 kPa | 743.9 kg/m3
8980 kPa | 743.8 kg/m3
8992 kPa | 743.9 kg/m3
9004 kPa | 743.8 kg/m3
9019 kPa | 743.8 kg/m3
9029 kPa | 743.9 kg/m3
9038 kPa | 743.8 kg/m3
9050 kPa | 743.9 kg/m3
9059 kPa | 743.9 kg/m3
9071 kPa | 743.8 kg/m3
9080 kPa | 743.9 kg/m3
9717 kPa | 744.3 kg/m3
10364 kPa | 744.7 kg/m3
10421 kPa | 744.9 kg/m3
10435 kPa | 744.9 kg/m3
10472 kPa | 744.9 kg/m3
10482 kPa | 744.8 kg/m3
10525 kPa | 744.9 kg/m3
10552 kPa | 744.9 kg/m3
10563 kPa | 744.8 kg/m3
10574 kPa | 745 kg/m3
10588 kPa | 744.9 kg/m3
10597 kPa | 744.9 kg/m3
10608 kPa | 745 kg/m3
10620 kPa | 745 kg/m3
10631 kPa | 745 kg/m3
10646 kPa | 745 kg/m3
10659 kPa | 745 kg/m3
10673 kPa | 745 kg/m3
10999 kPa | 745.3 kg/m3
11564 kPa | 745.6 kg/m3
11578 kPa | 745.6 kg/m3
11593 kPa | 745.6 kg/m3
11608 kPa | 745.6 kg/m3
11694 kPa | 745.7 kg/m3
11712 kPa | 745.6 kg/m3
11728 kPa | 745.8 kg/m3
11741 kPa | 745.7 kg/m3
11759 kPa | 745.7 kg/m3
13134 kPa | 746.6 kg/m3
13157 kPa | 746.7 kg/m3
13176 kPa | 746.7 kg/m3
13196 kPa | 746.7 kg/m3
13216 kPa | 746.6 kg/m3
13236 kPa | 746.7 kg/m3
13256 kPa | 746.6 kg/m3
13276 kPa | 746.7 kg/m3
13296 kPa | 746.7 kg/m3
13358 kPa | 746.8 kg/m3
13379 kPa | 746.8 kg/m3
13400 kPa | 746.9 kg/m3
13421 kPa | 746.8 kg/m3
13438 kPa | 746.8 kg/m3
13465 kPa | 746.8 kg/m3
13489 kPa | 746.9 kg/m3
13507 kPa | 746.8 kg/m3
13528 kPa | 746.8 kg/m3
13546 kPa | 746.8 kg/m3
13574 kPa | 746.9 kg/m3
13613 kPa | 747 kg/m3
14239 kPa | 747.3 kg/m3
14264 kPa | 747.4 kg/m3
14287 kPa | 747.4 kg/m3
14316 kPa | 747.4 kg/m3
14335 kPa | 747.4 kg/m3
14461 kPa | 747.5 kg/m3
15158 kPa | 748 kg/m3
15181 kPa | 747.9 kg/m3
15201 kPa | 748.1 kg/m3
15221 kPa | 748 kg/m3
15259 kPa | 748.1 kg/m3
15288 kPa | 748 kg/m3
15328 kPa | 748 kg/m3
16053 kPa | 748.5 kg/m3
17575 kPa | 749.4 kg/m3
17600 kPa | 749.6 kg/m3
17681 kPa | 749.6 kg/m3
18272 kPa | 750 kg/m3
18327 kPa | 750.1 kg/m3
18353 kPa | 749.9 kg/m3
18410 kPa | 750.1 kg/m3
18436 kPa | 750.1 kg/m3
18466 kPa | 750.1 kg/m3
18497 kPa | 750.2 kg/m3
18520 kPa | 750.2 kg/m3
18543 kPa | 750.1 kg/m3
18605 kPa | 750.2 kg/m3
18628 kPa | 750.2 kg/m3
19272 kPa | 750.6 kg/m3
19319 kPa | 750.6 kg/m3
19342 kPa | 750.7 kg/m3
19377 kPa | 750.7 kg/m3
19413 kPa | 750.7 kg/m3
20535 kPa | 751.4 kg/m3
20578 kPa | 751.3 kg/m3
20601 kPa | 751.5 kg/m3
21429 kPa | 752 kg/m3
21453 kPa | 752 kg/m3
21475 kPa | 751.9 kg/m3
21504 kPa | 752 kg/m3
21533 kPa | 752 kg/m3
21563 kPa | 752.1 kg/m3
21589 kPa | 752 kg/m3
21622 kPa | 752.2 kg/m3
21647 kPa | 752.1 kg/m3
21669 kPa | 752.1 kg/m3
21696 kPa | 752 kg/m3
21719 kPa | 752.2 kg/m3
